One test concerns airway epithelial cells. The following applies: cited from earlier work.
A further test relates to islet cells. Kind of test: Islet cell culture with upstream or downstream ROCK pathway inhibitor in place of a ROCK inhibitor. The class given is cell-based, human. The note with it: used in the culture conditions in place of a ROCK inhibitor. The source says: As used herein, inhibiting ROCK can mean to reduce the activity, function or expression of at least one of ROCK1 or ROCK2. […] In general, ROCK phosphorylates LIM kinase and myosin light chain (MLC) phosphatase after being activated through binding of GTP-bound Rho. One embodiment of the present invention thus involves blocking the upstream pathway of ROCK1 and/or ROCK2, for example GTP-bound Rho, such that ROCK1 and/or ROCK2 is not activated or its activity is reduced over untreated cells. Other upstream effectors include but are not limited to, integrins, growth factor receptors, including but not limited to, TGF-beta and EGFR, cadherins, G protein coupled receptors and the like. Another embodiment of the present invention thus involves blocking the activity, function or expression of downstream effector molecules of activated ROCK1 and/or ROCK2 such that ROCK1 and/or ROCK2 cannot propagate any signal or can only propagate a reduced signal over untreated cells. Downstream effectors include but are not limited to, Myosin phosphatase-targeting protein (MYPT), vimentin, LIMK, Myosin light chain kinase, NHE1, cofilin, Myosin II and the like. […] Upstream or downstream inhibition of ROCK, in place of direct ROCK inhibition and in conjunction with the other culture conditions described and required herein, may or may not generate conditionally immortalized islet cells. […]

As for `O=S(=O)(c1cccc2cnccc12)N1CCCNCC1` [HA 1077, fasudil], the “effect on airway epithelial cells” value in the test with airway epithelial cells is “induces membrane ruffling, loss of actin stress fibers and apoptosis”.

On to `C[C@@H](N)[C@H]1CC[C@H](C(=O)Nc2ccncc2)CC1` [Y-27632], for which the “effect on airway epithelial cells” value in the test with airway epithelial cells was “induces membrane ruffling, loss of actin stress fibers and apoptosis”.

Regarding `Cc1ccc2c(c1)C(=O)C1(O)CCN(c3ccccc3)C1=N2` (stereo not shown) [blebbistatin], in the test with islet cells, the “effect on cell differentiation and proliferation in vitro” value is “allow the cells to bypass differentiation and allow proliferation in vitro”.

For the compound C3 transferase, in the test with islet cells, the “effect on cell differentiation and proliferation in vitro” value was “allow the cells to bypass differentiation and allow proliferation in vitro”.

The values are drawn from patent US20190151371A1, “PROCESS FOR CONTINUOUS CELL CULTURE OF ISLET CELLS” (Georgetown University, priority 2016, published 2019).
